Among the data in patent publication US10479780B2, “Aminopyrazole derivatives” (Chugai Seiyaku Kabushiki Kaisha, priority 2015, dated 2019) are IC50 values, retold here.

Assay type in all cases: biochemical
For one assay, the target named is T1, human Yes1 enzyme (Homo sapiens, UniProt P07947).
T1 construct: made in house
The assay is described as follows: Yes1 enzyme inhibitory activity (time-resolved fluorometry, biotinylated peptide phosphorylation). The conditions noted are these: biotinylated peptide phosphorylation, read-out: YES_IC50. The method in brief:
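Inhibition was expressed against a compound-free control to give IC50, using TR-FRET read-out (Eu-cryptate anti-pTyr antibody, streptavidin-XL665).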

In a further assay the target is T2, human Src enzyme (Homo sapiens, UniProt P12931).
T2 construct: purchased Carna Biosciences, Inc. 08-173
The assay is described as follows: Src enzyme inhibitory activity (time-resolved fluorometry, biotinylated peptide phosphorylation). The note with it: biotinylated peptide phosphorylation, read-out: SRC_IC50. A digest of the protocol:
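Compounds were tested for blocking tyrosine phosphorylation of a biotinylated peptide substrate by recombinant human Src. Phosphorylated product was quantified by time-resolved fluorometry using europium cryptate and XL665 conjugates, and IC50 was calculated against the compound-free control.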

A further assay deals with T3, human Lck enzyme (Homo sapiens, UniProt P06239).
T3 construct: purchased Carna Biosciences, Inc. 08-170
As to the kind of experiment: Lck enzyme inhibitory activity (time-resolved fluorometry, biotinylated peptide phosphorylation). The note with it: biotinylated peptide phosphorylation, read-out: LCK_IC50. A digest of the protocol: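 Readout pairs a europium cryptate-labelled anti-phosphotyrosine antibody with XL665-streptavidin, measured by time-resolved fluorescence. IC50 derived from percent inhibition against untreated controls.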

T1 sequence (P07947 whole entry): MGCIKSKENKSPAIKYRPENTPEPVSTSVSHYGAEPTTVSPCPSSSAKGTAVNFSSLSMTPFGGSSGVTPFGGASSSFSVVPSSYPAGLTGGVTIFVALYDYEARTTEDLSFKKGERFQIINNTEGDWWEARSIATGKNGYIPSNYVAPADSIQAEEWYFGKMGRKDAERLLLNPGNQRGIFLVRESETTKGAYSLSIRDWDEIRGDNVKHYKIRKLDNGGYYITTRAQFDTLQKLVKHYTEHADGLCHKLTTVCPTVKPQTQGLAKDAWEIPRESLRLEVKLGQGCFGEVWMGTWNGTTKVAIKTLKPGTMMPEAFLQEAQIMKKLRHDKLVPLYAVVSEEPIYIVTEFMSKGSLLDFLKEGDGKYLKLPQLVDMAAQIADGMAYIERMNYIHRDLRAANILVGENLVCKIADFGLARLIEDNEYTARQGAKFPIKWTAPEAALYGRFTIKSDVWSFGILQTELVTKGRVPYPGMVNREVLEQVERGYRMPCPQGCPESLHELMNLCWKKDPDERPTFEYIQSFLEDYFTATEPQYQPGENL
T2 sequence (P12931 whole entry): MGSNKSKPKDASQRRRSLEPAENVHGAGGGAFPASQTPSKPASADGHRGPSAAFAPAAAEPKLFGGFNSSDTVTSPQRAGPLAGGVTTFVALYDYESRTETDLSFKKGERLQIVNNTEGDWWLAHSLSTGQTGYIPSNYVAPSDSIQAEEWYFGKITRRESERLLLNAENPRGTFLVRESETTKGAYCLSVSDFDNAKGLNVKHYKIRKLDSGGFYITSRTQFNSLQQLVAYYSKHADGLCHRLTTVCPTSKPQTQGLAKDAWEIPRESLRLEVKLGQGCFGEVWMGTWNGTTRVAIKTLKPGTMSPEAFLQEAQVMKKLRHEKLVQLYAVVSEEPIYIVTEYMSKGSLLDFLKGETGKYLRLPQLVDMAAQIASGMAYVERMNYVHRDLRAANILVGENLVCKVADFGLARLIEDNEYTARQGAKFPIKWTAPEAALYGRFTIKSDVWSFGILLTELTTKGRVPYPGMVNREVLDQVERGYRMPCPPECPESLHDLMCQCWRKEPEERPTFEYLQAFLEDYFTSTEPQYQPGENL
T3 sequence (P06239 whole entry): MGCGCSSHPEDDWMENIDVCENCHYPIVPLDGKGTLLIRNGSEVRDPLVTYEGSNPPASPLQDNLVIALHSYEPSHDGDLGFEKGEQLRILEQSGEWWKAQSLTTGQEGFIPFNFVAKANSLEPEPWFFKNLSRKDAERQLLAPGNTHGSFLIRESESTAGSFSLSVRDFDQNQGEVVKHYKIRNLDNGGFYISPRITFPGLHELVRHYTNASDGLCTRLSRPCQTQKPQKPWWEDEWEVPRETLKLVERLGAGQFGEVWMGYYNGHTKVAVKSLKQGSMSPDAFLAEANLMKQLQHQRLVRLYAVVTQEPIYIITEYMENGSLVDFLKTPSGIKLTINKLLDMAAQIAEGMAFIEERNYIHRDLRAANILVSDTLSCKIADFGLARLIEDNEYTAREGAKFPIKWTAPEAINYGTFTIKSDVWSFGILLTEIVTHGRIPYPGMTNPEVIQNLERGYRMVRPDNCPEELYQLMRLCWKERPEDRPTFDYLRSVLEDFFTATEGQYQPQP

As for `Cc1cc(Oc2ccccc2F)cc(F)c1-n1ncc(C(=O)c2cc3cc(OC(F)F)c(NC4CCN(S(C)(=O)=O)CC4)cc3[nH]2)c1N` [Example 4-23-012, [5-amino-1-[2-fluoro-4-(2-fluorophenoxy)-6-methylphenyl]pyrazol-4-yl]-[5-(difluoromethoxy)-6-[(1-methylsulfonylpiperidin-4-yl)amino]-1H-indol-2-yl]methanone], the figures for the IC50 at human Yes1 enzyme, at human Src enzyme and on human Lck enzyme were 14 nM, 70 nM and 31 nM, respectively.
On to `Cc1cc(Oc2ccccc2F)ncc1-n1ncc(C(=O)c2cc3cc(OC(F)F)c(NC4COC4)cc3[nH]2)c1N` [Example 4-23-013, [5-amino-1-[6-(2-fluorophenoxy)-4-methylpyridin-3-yl]pyrazol-4-yl]-[5-(difluoromethoxy)-6-(oxetan-3-ylamino)-1H-indol-2-yl]methanone], for which the IC50 came out at 1.6 nM on human Yes1 enzyme, 40 nM at human Src enzyme and 4.6 nM at human Lck enzyme.
`Cc1cc(Oc2c(F)cccc2F)ncc1-n1ncc(C(=O)c2cc3cc(OC(F)F)c(NC4COC4)cc3[nH]2)c1N` [Example 4-23-014, [5-amino-1-[6-(2,6-difluorophenoxy)-4-methylpyridin-3-yl]pyrazol-4-yl]-[5-(difluoromethoxy)-6-(oxetan-3-ylamino)-1H-indol-2-yl]methanone]: the IC50 worked out at 3.5 nM on human Yes1 enzyme, 22 nM at human Src enzyme and 9.2 nM on human Lck enzyme.
The matching figures for `Cc1cc(Oc2c(F)cccc2F)ncc1-n1ncc(C(=O)c2cc3cc(OC(F)F)c(NC4CCN(S(C)(=O)=O)CC4)cc3[nH]2)c1N` [Example 4-23-015, [5-amino-1-[6-(2,6-difluorophenoxy)-4-methylpyridin-3-yl]pyrazol-4-yl]-[5-(difluoromethoxy)-6-[(1-methylsulfonylpiperidin-4-yl)amino]-1H-indol-2-yl]methanone]: 5.4 nM, 49 nM and 23 nM.
The matching figures for `Cc1cc(Oc2ccccc2F)ccc1-n1ncc(C(=O)c2cc3cc(OCC(F)F)c(NC4COC4)cc3[nH]2)c1N` [Example 4-23-016, [5-amino-1-[4-(2-fluorophenoxy)-2-methylphenyl]pyrazol-4-yl]-[5-(2,2-difluoroethoxy)-6-(oxetan-3-ylamino)-1H-indol-2-yl]methanone]: 0.94 nM, 21 nM and 5.4 nM.
Take `Cc1cc(Oc2ccccc2F)ccc1-n1ncc(C(=O)c2cc3cc(OCC(F)F)c(NC4CCN(S(C)(=O)=O)CC4)cc3[nH]2)c1N` [Example 4-23-017, [5-amino-1-[4-(2-fluorophenoxy)-2-methylphenyl]pyrazol-4-yl]-[5-(2,2-difluoroethoxy)-6-[(1-methylsulfonylpiperidin-4-yl)amino]-1H-indol-2-yl]methanone]: the results for the IC50 at human Yes1 enzyme, on human Src enzyme and on human Lck enzyme were 5.1 nM, 28 nM and 13 nM, respectively.
Take `Cc1cc(Oc2ccccc2F)ccc1-n1ncc(C(=O)c2cc3cc(OCC(F)F)c(NC4CN(S(C)(=O)=O)C4)cc3[nH]2)c1N` [Example 4-23-018, [5-amino-1-[4-(2-fluorophenoxy)-2-methylphenyl]pyrazol-4-yl]-[5-(2,2-difluoroethoxy)-6-[(1-methylsulfonylazetidin-3-yl)amino]-1H-indol-2-yl]methanone]: the IC50 at human Yes1 enzyme was found to be 1.4 nM; on human Src enzyme, 18 nM; on human Lck enzyme, 6.5 nM.
In the case of `Cc1cc(Oc2ccccc2F)cc(F)c1-n1ncc(C(=O)c2cc3cc(OCC(F)F)c(NC4COC4)cc3[nH]2)c1N` [Example 4-23-019, [5-amino-1-[2-fluoro-4-(2-fluorophenoxy)-6-methylphenyl]pyrazol-4-yl]-[5-(2,2-difluoroethoxy)-6-(oxetan-3-ylamino)-1H-indol-2-yl]methanone], the results for the IC50 at human Yes1 enzyme, at human Src enzyme and on human Lck enzyme were 1.8 nM, 28 nM and 6.4 nM, respectively.
The matching figures for `Cc1cc(Oc2ccccc2F)ncc1-n1ncc(C(=O)c2cc3cc(OCC(F)F)c(NC4COC4)cc3[nH]2)c1N` [Example 4-23-020, [5-amino-1-[6-(2-fluorophenoxy)-4-methylpyridin-3-yl]pyrazol-4-yl]-[5-(2,2-difluoroethoxy)-6-(oxetan-3-ylamino)-1H-indol-2-yl]methanone]: 1.4 nM, 30 nM and 3.8 nM.
Taken in the same sequence, the figures for `Cc1cc(Oc2c(F)cccc2F)ncc1-n1ncc(C(=O)c2cc3cc(OCC(F)F)c(NC4CCN(S(C)(=O)=O)CC4)cc3[nH]2)c1N` [Example 4-23-021, [5-amino-1-[6-(2,6-difluorophenoxy)-4-methylpyridin-3-yl]pyrazol-4-yl]-[5-(2,2-difluoroethoxy)-6-[(1-methylsulfonylpiperidin-4-yl)amino]-1H-indol-2-yl]methanone] were 3.6 nM, 21 nM and 11 nM.
As for `Cc1cc(Oc2c(F)cccc2F)ncc1-n1ncc(C(=O)c2cc3cc(OCC(F)F)c(NC4CN(S(C)(=O)=O)C4)cc3[nH]2)c1N` [Example 4-23-022, {5-amino-1-[6-(2,6-difluorophenoxy)-4-methylpyridin-3-yl]pyrazol-4-yl}-[5-(2,2-difluoroethoxy)-6-[(1-methylsulfonylazetidin-3-yl)amino]-1H-indol-2-yl]methanone], the IC50 came out at 1.3 nM at human Yes1 enzyme, 24 nM at human Src enzyme and 8 nM at human Lck enzyme.
In the case of `Cc1cc(Oc2ccccc2F)ccc1-n1ncc(C(=O)c2cc3cc(OC(F)F)c(NC4CN(S(C)(=O)=O)C4)cc3[nH]2)c1N` [Example 4-23-023, [5-amino-1-[4-(2-fluorophenoxy)-2-methylphenyl]pyrazol-4-yl]-[5-(difluoromethoxy)-6-[(1-methylsulfonylazetidin-3-yl)amino]-1H-indol-2-yl]methanone], the IC50 on human Yes1 enzyme was 0.45 nM; on human Src enzyme, 17 nM; on human Lck enzyme, 5.8 nM.
`Cc1cc(Oc2ccccc2F)cc(F)c1-n1ncc(C(=O)c2cc3cc(OC(F)F)c(NC4CN(S(C)(=O)=O)C4)cc3[nH]2)c1N` [Example 4-23-024, [5-amino-1-[2-fluoro-4-(2-fluorophenoxy)-6-methylphenyl]pyrazol-4-yl]-[5-(difluoromethoxy)-6-[(1-methylsulfonylazetidin-3-yl)amino]-1H-indol-2-yl]methanone]: the IC50 stood at 7.2 nM on human Yes1 enzyme, 53 nM on human Src enzyme and 13 nM at human Lck enzyme.
As to `Cc1cc(Oc2ccccc2F)ncc1-n1ncc(C(=O)c2cc3cc(OC(F)F)c(NC4CN(S(C)(=O)=O)C4)cc3[nH]2)c1N` [Example 4-23-025, [5-amino-1-[6-(2-fluorophenoxy)-4-methylpyridin-3-yl]pyrazol-4-yl]-[5-(difluoromethoxy)-6-[(1-methylsulfonylazetidin-3-yl)amino]-1H-indol-2-yl]methanone], the IC50 on human Yes1 enzyme was 1.8 nM; on human Src enzyme it was 30 nM; at human Lck enzyme it was 5.6 nM.
Taken in the same sequence, the figures for `Cc1cc(Oc2ccccc2F)ncc1-n1ncc(C(=O)c2cc3cc(OC(F)F)c(NC4CCN(S(C)(=O)=O)CC4)cc3[nH]2)c1N` [Example 4-23-026, [5-amino-1-[6-(2-fluorophenoxy)-4-methylpyridin-3-yl]pyrazol-4-yl]-[5-(difluoromethoxy)-6-[(1-methylsulfonylpiperidin-4-yl)amino]-1H-indol-2-yl]methanone] were 4.5 nM, 50 nM and 19 nM.
For the compound `Cc1cc(Oc2ccccc2F)cc(F)c1-n1ncc(C(=O)c2cc3cc(OCC(F)F)c(NC4CN(S(C)(=O)=O)C4)cc3[nH]2)c1N` [Example 4-23-027, [5-amino-1-[2-fluoro-4-(2-fluorophenoxy)-6-methylphenyl]pyrazol-4-yl]-[5-(2,2-difluoroethoxy)-6-[(1-methylsulfonylazetidin-3-yl)amino]-1H-indol-2-yl]methanone], the results for the IC50 at human Yes1 enzyme, on human Src enzyme and at human Lck enzyme were 1.9 nM, 16 nM and 7.6 nM, respectively.
Take `Cc1cc(Oc2ccccc2F)cc(F)c1-n1ncc(C(=O)c2cc3cc(OCC(F)F)c(NC4CCN(S(C)(=O)=O)CC4)cc3[nH]2)c1N` [Example 4-23-028, [5-amino-1-[2-fluoro-4-(2-fluorophenoxy)-6-methylphenyl]pyrazol-4-yl]-[5-(2,2-difluoroethoxy)-6-[(1-methylsulfonylpiperidin-4-yl)amino]-1H-indol-2-yl]methanone]: the IC50 amounted to 20 nM at human Yes1 enzyme, 70 nM at human Src enzyme and 41 nM on human Lck enzyme.
Regarding `Cc1cc(Oc2c(F)cccc2F)ncc1-n1ncc(C(=O)c2cc3cc(OCC(F)F)c(-n4c(C)cc(=O)[nH]c4=O)cc3[nH]2)c1N` [Example 4-23-029, 1-{2-{5-amino-1-[6-(2,6-difluorophenoxy)-4-methylpyridin-3-yl]pyrazole-4-carbonyl}-5-(2,2-difluoroethoxy)-1H-indol-6-yl}-6-methylpyrimidine-2,4-dione], the IC50 was 4.7 nM on human Yes1 enzyme, 34 nM on human Src enzyme and 6.1 nM on human Lck enzyme.
Take `Cc1cc(Oc2ccccc2F)ccc1-n1ncc(C(=O)c2cc3cc(OCC(F)F)c(-n4c(C)cc(=O)[nH]c4=O)cc3[nH]2)c1N` [Example 4-23-030, 1-[2-[5-amino-1-[4-(2-fluorophenoxy)-2-methylphenyl]pyrazole-4-carbonyl]-5-(2,2-difluoroethoxy)-1H-indol-6-yl]-6-methylpyrimidine-2,4-dione]: the values for the IC50 at human Yes1 enzyme, on human Src enzyme and on human Lck enzyme were 1.4 nM, 6.4 nM and 3.8 nM, respectively.
